Patent US7402697B2, “Antibacterial agents” (Idexx Laboratories Inc., priority 2004, dated 2008)
≈ marks a conversion by molar mass, not a printed value. Entries after “also recorded” stand apart in the source; their conditions may differ.

How the values were obtained:
[1] = Serum concentration as a function of time after subcutaneous administration to dogs (HPLC); assay type: in vivo; conditions: for clearance of each isomer, serum concentration as percent of CmaxR or CmaxS as a function of time: 40 mg/kg of A2 as equimolar mixture of (R) and (S) acylamido configuration; for clearance rate: compared with NUFLOR®
Protocol: The pharmaceutical composition was then administered to dogs at a dose of 40 mg/kg. Blood samples were taken from the dog at various time points and serum separated using standard methods well known to those skilled in the art. The serum was then analyzed using HPLC according to the following procedure: A C18 Sep-Pak Plus® cartridge (Sep-Pak) (commercially available from Waters of Milford, Mass.) was rinsed with 5 mL of methanol followed by 5 mL of water and loaded with 1 mL of serum. After loading, the Sep-Pak was washed with 2 mL of water, 2 mL of 15% aqueous acetonitrile, and 3 mL of hexane. The Sep-Pak was then eluted with 4 mL of acetonitrile and the eluant collected. The acetonitrile was evaporated using a stream of nitrogen to provide a residue and the resulting residue was reconstituted with 1 mL of 25% aqueous acetonitrile to provide an assay solution. 50 μL of the assay solution was then analyzed by HPCL using high pressure liquid chromatography equipped with a Beckman Coulter Ultraphere C-18 5 μM×4.6 mm×250 mm analytical column eluted at a flow of 1.2 mL/min. using a gradient of water and acetonitrile according to the following profile: [table] The HPLC system was interfaced to a UV detector operated at 223 nm. […] The pharmaceutical composition was then administered to dogs subcutaneously at a a dose of 40 mg/kg. Blood samples were taken from the dogs at various time points and the blood samples treated as described above. The serum was then analyzed using the HPLC procedure described above. […] The pharmaceutical composition was then administered to dogs subcutaneously at a a dose of 40 mg/kg. Blood samples were taken from the dogs at various time points and the blood samples treated as described above. The serum was then analyzed using the HPLC procedure described above. […] The maximum serum level was determined for each isomer (CmaxR and CmaxS, respectively).

[2] = system: S. aureaus; assay: Minimum inhibitory concentration, disk diffusion susceptibility testing; assay type: cell-based
Protocol: (§1) The activity of a Fenicol Compound against a bacteria is determined using standard dilution tests. For example, the minimum inhibitory concentrations can be determined using the disk diffusion susceptibility testing method described in Clinical Microbiology Procedures Handbook, volume 1, edited by Henry D. Isenberg, American Society for Microbiology, 1992, section 5.1 or the well known method of Bauer et al. “Antibiotic Susceptibility Testing by a Standardized Single Disc Method,” Amer. J. Clin. Pathol., 45, p. 493-496.

[3] = system: E. coli; assay: as above; assay type: cell-based; conditions: for Minimum Inhibitory Concentration: E. coli
Protocol: as §1

[4] = system: E. faecalis; assay: as above; assay type: cell-based
Protocol: as §1

[5] = system: B. subtitis; assay: as above; assay type: cell-based
Protocol: as §1

[6] = system: S. pyogenes; assay: as above; assay type: cell-based
Protocol: as §1

[7] = system: B. bronchoseptica; assay: as above; assay type: cell-based
Protocol: as §1

[8] = system: K. pneumoniae; assay: as above; assay type: cell-based
Protocol: as §1

SMILES | Minimum Inhibitory Concentration [2] [µg/mL] | Minimum Inhibitory Concentration [3] [µg/mL] | Minimum Inhibitory Concentration [5] [µg/mL] | Minimum Inhibitory Concentration [6] [µg/mL] | maximum serum concentration ([1]; 40 mg/kg) | Minimum Inhibitory Concentration [7] [µg/mL] | Minimum Inhibitory Concentration [8] [µg/mL] | also measured
C[C@@H](C(=O)N[C@H](CF)[C@H](O)c1ccc(S(C)(=O)=O)cc1)C(F)(F)F |  |  |  |  |  |  |  | clearance of each isomer, serum concentration as percent of CmaxR or CmaxS as a function of time [1]: decreases rapidly
CC(C(=O)NC(CF)C(O)c1ccc(S(C)(=O)=O)cc1)C(F)(F)F (mixture of isomers) [A2] | 7 | 7 | 5 | 5 | ~5 µg/mL |  |  | Minimum Inhibitory Concentration [4]: 5 µg/mL; serum concentration compared with NUFLOR® ([1]; 40 mg/kg): much higher serum concentration; clearance rate ([1]; 40 mg/kg): much slower than the clearance rate of NUFLOR®; also recorded: cleared more slowly than is NUFLOR®
CC(Cl)C(=O)NC(CF)C(O)c1ccc(S(C)(=O)=O)cc1 (mixture of isomers) [E2 + I2 (Racemic Mixture)] | 2 | 3 | 0.5 |  |  | 3 | 5 | 
CC(F)C(=O)NC(CF)C(O)c1ccc(S(C)(=O)=O)cc1 (mixture of isomers) [E5 + I5 (Racemic Mixture)] | 5 | 5 | 1 | 5 |  | >10 | 5 | Minimum Inhibitory Concentration [4]: 3 µg/mL
CC(C)C(=O)N[C@H](CF)[C@H](O)c1ccc(S(C)(=O)=O)cc1 [A1] | 3 | 5 | 2 | 5 | ~7 µg/mL |  |  | serum concentration compared with NUFLOR® ([1]; 40 mg/kg): higher serum concentration than NUFLOR®; clearance rate ([1]; 40 mg/kg): cleared much more slowly; also recorded: cleared more slowly than NUFLOR®
C[C@H](C(=O)N[C@H](CF)[C@H](O)c1ccc(S(C)(=O)=O)cc1)C(F)(F)F [A2 wherein the acylamido group has the (R) stereochemical co] |  |  |  |  |  |  |  | clearance of each isomer, serum concentration as percent of CmaxR or CmaxS as a function of time ([1]; 40 mg/kg): cleared more slowly
C[C@H](C(=O)N[C@H](CF)[C@H](O)c1ccc(S(C)(=O)=O)cc1)C(F)(F)F [A2 wherein the acylamido group is present in the (R) stereoc] |  |  |  |  |  |  |  | clearance of each isomer, serum concentration as percent of CmaxR or CmaxS as a function of time ([1]; 40 mg/kg): decreases much more slowly
CS(=O)(=O)c1ccc([C@@H](O)[C@@H](CF)NC(=O)CCl)cc1 [D-threo-2-chloro-N-[1-(fluoromethyl)-2-hydroxy-2-[4-methylsulfonyl)phenyl]ethyl]-acetamide] | 2 | 3 | 0.5 |  |  | 3 | 5 | 
CS(=O)(=O)c1ccc([C@@H](O)[C@@H](CF)NC(=O)C(Cl)Cl)cc1 [Fluorfenicol, reference compound] |  |  |  |  | less than 0.8 μg/mL |  |  | MIC [2]: 1 µg/mL (≈ 2.79 µM); MIC [7]: 1 µg/mL (≈ 2.79 µM); MIC ([8]; Klebsiella pneumoniae): 3 µg/mL (≈ 8.37 µM); MIC ([3]; Escherichia coli, read-out: Minimum Inhibitory Concentration): 1 µg/mL (≈ 2.79 µM); MIC ([4]; Enterococcus faecalis): 3 µg/mL (≈ 8.37 µM); MIC [5]: 1 µg/mL (≈ 2.79 µM); MIC ([6]; Streptococcus pyogenes): 1 µg/mL (≈ 2.79 µM)
